Source: patent publication US8686156B2, “Thiazole derivatives as pesticides” (priority 2010, dated 2014)

Key:
[1] = system: green peach aphid (Myzus persicae); test: Myzus test, spray treatment; format: in vivo; conditions: application rate of 500 g/ha; spray treatment of Chinese cabbage discs; after 6 days
Experimental: Myzus Test Spray Treatment Solvent: 78 parts by weight of acetone • • 1.5 parts by weight of dimethylformamide Emulsifier: 0.5 part by weight of alkylaryl polyglycol ether To produce a suitable preparation of active compound, 1 part by weight of active compound is mixed with the stated amounts of solvent and emulsifier, and the concentrate is diluted with emulsifier-containing water to the desired concentration. Discs of Chinese cabbage (Brassica pekinensis) infected by all stages of the green peach aphid (Myzus persicae) are sprayed with an active compound preparation of the desired concentration. After 6 days, the effect in % is determined. 100% means that all of the aphids have been killed; 0% means that none of the aphids have been killed.

[2] = logP determination by HPLC (formic acid method); format: physicochemical; conditions: reversed-phase HPLC column (C18), reversed-phase column (C 18), 55° C., acidic range (pH 3.4), read-out: log P(HCOOH)
Experimental: 1) Description of the Method for Determining the logP Values (Formic Acid Method) The logP values were determined in accordance with EEC Directive 79/831 Annex V.A8 by HPLC (High Performance Liquid Chromatography) using a reversed-phase column (C 18). Temperature: 55° C. Mobile phases for determination in the acidic range (pH 3.4): Mobile phase A: acetonitrile+1 ml of formic acid/litre. Mobile phase B: water+0.9 ml of formic acid/litre. Gradient: 10% mobile phase A/90% mobile phase B to 95% mobile phase A/5% mobile phase B over 4.25 min. Calibration was carried out using unbranched alkan-2-ones (having from 3 to 16 carbon atoms) with known logP values (the logP values were determined by the retention times using linear interpolation between two successive alkanones). The lambda max values were determined in the maxima of the chromatographic signals using the UV spectra from 200 nm to 400 nm.

| chromatographic logP [2] | Compound | effect in % (100% means that all of the aphids have been killed) [1] [%] |
| --- | --- | --- |
| 2.15 | Fc1nc(-c2cccnc2)sc1-c1cccc(-c2ncccn2)n1 [Example 1, 2-[6-(4-Fluoro-2-pyridin-3-ylthiazol-5-yl)pyridin-2-yl]pyrimidine] | 100 |
| 2.27 | Clc1nc(-c2cccnc2)sc1-c1cccc(-c2ncccn2)n1 [2-{6-[4-Chloro-2-(pyridin-3-yl)-1,3-thiazol-5-yl]pyridin-2-yl}pyrimidine] | – |
| 3.27 | Clc1cnc(-c2cccc(-c3sc(-c4cccnc4)nc3Cl)n2)nc1 [5-Chloro-2-{6-[4-chloro-2-(pyridin-3-yl)-1,3-thiazol-5-yl]pyridin-2-yl}pyrimidine] | – |
